Measurements published in patent US20140357662A1, “THIENO (2,3 - C) PYRAZOLES FOR USE AS POTASSIUM CHANNEL INHIBITORS” (XENTION LIMITED, priority 2011, published 2014).

Molecular target: T1, rat Kir3.1/3.4 (Rattus norvegicus, UniProt P48548+P63251)
T1 construct: expressed in transfected cells; host or cells: HEK293 (Human Embryonic Kidney 293), stably transfected
T1 sequence (P63251 1-501): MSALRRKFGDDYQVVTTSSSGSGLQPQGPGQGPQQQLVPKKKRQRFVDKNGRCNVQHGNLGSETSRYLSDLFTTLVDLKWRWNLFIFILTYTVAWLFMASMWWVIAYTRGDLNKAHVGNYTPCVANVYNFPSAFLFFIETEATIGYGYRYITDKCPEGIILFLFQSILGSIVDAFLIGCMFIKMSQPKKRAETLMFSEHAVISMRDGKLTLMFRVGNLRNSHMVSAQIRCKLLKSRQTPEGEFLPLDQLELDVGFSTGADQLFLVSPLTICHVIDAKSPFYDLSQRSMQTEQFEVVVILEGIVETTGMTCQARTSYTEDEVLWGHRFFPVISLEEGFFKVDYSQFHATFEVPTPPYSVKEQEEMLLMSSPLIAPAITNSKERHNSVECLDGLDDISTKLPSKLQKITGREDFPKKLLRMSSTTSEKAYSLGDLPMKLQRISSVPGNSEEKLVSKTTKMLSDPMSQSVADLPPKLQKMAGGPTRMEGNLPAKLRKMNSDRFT
T1 sequence (P48548 1-419): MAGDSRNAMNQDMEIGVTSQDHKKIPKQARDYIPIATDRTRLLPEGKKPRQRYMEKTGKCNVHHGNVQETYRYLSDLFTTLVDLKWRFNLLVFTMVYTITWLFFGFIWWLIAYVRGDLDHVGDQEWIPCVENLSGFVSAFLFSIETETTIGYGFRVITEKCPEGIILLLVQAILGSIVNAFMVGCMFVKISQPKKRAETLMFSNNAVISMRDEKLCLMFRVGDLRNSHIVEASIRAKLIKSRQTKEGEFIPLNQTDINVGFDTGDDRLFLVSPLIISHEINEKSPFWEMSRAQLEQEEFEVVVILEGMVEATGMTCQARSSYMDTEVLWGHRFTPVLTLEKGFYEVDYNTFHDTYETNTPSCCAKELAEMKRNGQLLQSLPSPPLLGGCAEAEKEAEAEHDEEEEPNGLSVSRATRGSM
Test: Kir3.1/3.4 Electrophysiology Method (manual whole-cell patch clamp)
Format: cell-based
Settings: Human Embryonic Kidney 293 stably transfected with rat Kir3.1/3.4; inhibition of leak-subtracted current at -140 mV
Procedure: Compound activity against the recombinant G-protein activated inward rectifier current encoded by the heterotetramer Kir3.1/3.4 was assessed using manual whole-cell patch technique. The heterotetramer forms the pore-forming channel that conducts the acetylcholine/adenosine-activated potassium current in the heart.
For whole-cell patch-clamp studies, cells (Human Embryonic Kidney 293 stably transfected with rat Kir3.1/3.4) were seeded onto glass coverslips before recordings were made. Cells were seeded in sterile 30 mm Petri dishes at a density to enable isolated cells to be selected for patch clamp experiments. The dishes were stored in a humidified, gassed (5% CO2) incubator at 37° C. until use.
Whole-cell patch-clamp recordings of membrane currents were made following gigaohm seal formation between the patch electrode and the cell using HEKA EPC-9/10 amplifiers controlled by Pulse Software (Ver8.5x/8.6x/8.7x, HEKA, Germany). Coverslips seeded with cells were placed in a recording chamber mounted on the stage of an inverted microscope. During the experiment, the cell of interest was continuously superfused with bather solution delivered via a cannula placed in close proximity to the cell to enable control of the extracellular solution environment. Only those cells with a current <−500 pA (current at −140 mV) were used for experiments. During experiments, series resistance was compensated by a minimum of 70%.
Electrophysiology voltage-step protocols and analysis of data were performed as follows. Data was sampled at 5 kHz, and filtered with a −3 dB bandwidth of 2.5 kHz. Cells were held at a voltage of −60 mV. Currents were evoked by a depolarising voltage step to +60 mV (100 ms) before a ramp-repolarisation (0.4 V·s^−1) to −140 mV (100 ms) before returning to −60 mV. The command waveform was repeatedly applied every 10 s throughout the experiment. Mean currents during 1-99% of the time at −140 mV were analysed using Pulsefit software (v8.x, HEKA, Germany). The voltage protocol was repeatedly applied to achieve a stable current baseline in bather before the test substance was superfused via the cannula in close proximity to the cell under investigation. The test substance was allowed to equilibrate during which time voltage protocol was repeatedly applied and recorded. On reaching steady-state inhibition, the cell was superfused with an identical bather solution containing zero external potassium chloride (replaced by equimolar NaCl). The identical current measurement was made in the absence of potassium to assess the passive leak at −140 mV. The leak current was subtracted from the control and steady-state drug current values. The percentage inhibition of the leak-subtracted current in the presence of test substance was calculated relative to the control leak-subtracted pre-drug value. Internal patch-pipette solution contained in mM: 110 KCl, 20 NaCl, 0.9 GTPγS, 5 Mg-ATP, 5 EGTA, 10 HEPES, pH7.2 corrected with KOH. The external superfusate composition in mM was: 150 (or 160) NaCl, 10 (or 0) KCl, 3 CaCl2, 1 MgCl, 10 HEPES, pH 7.4 corrected with NaOH.

IC50: < 500 nM
SMILES: CNC(=O)c1sc2[nH]nc(N3CCC(COCCN4CCCC4)CC3)c2c1-c1ccccc1 [Compound 25, N-methyl-4-phenyl-3-[4-(2-pyrrolidin-1-ylethoxymethyl)-1-piperidyl]-1H-thieno[2,3-c]pyrazole-5-carboxamide]
